Test results reported in PubChem BioAssay (NCI).
“And” between values parts separate entries of the source, which are not always exact repeats. Equal values may be shown once.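 Method: 48-hour compound exposure of cells in 96-well plates, five concentrations, linear interpolation of endpoints. Here, GI50 denotes the concentration required for 50% inhibition of growth. TGI: total growth inhibition.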

Experiments:
Experiment in all cases: inhibition of tumour cell growth, NCI panel, 48 h
[1] = test system: SK-MEL-2 melanoma
[2] = test system: HCC-2998 colon
[3] = test system: HOP-92 NSCLC
[4] = test system: SF-539 CNS
[5] = test system: PC-3 prostate
[6] = test system: NCI/ADR-RES ovarian
[7] = test system: OVCAR-3 ovarian
[8] = test system: M14 melanoma
[9] = test system: MDA-MB-231 breast
[10] = test system: OVCAR-4 ovarian

SMILES	TGI [1]	TGI [2]	TGI [3]	TGI [4]	TGI [5]	TGI [6]	TGI [7]	TGI [8]	TGI [9] [µM]	TGI [10]	GI50 [2] [µM]	GI50 [4]	GI50 [7]	GI50 [8]	GI50 [9] [µM]	GI50 [10]
COc1cccc(N2N=C3c4ccccc4-n4c(nc5ccccc54)C3C2N)c1 (stereo unspecified)	> 100 µM	> 100 µM	> 100 µM	> 100 µM	> 100 µM	> 100 µM	> 100 µM	> 100 µM	> 100	> 100 µM						
O=C(O)CNC(=O)c1cccc2c(=O)c3ccccc3[nH]c12	> 100 µM	> 100 µM	> 100 µM	> 100 µM	> 100 µM	> 100 µM	> 100 µM	> 100 µM	> 100	> 100 µM						
COc1ccccc1OC/C(N=Cc1ccncc1)=N/NC(=O)c1ccncc1	> 100 µM	> 100 µM	> 100 µM	> 100 µM	> 100 µM	> 100 µM	> 100 µM	> 100 µM	> 100	> 100 µM						
COc1ccc(C=O)cc1Oc1ccc(C[C@H]2c3c(cc(OC)c4c3Oc3cc5c(cc3O4)CCN(C)C5=O)CCN2C)cc1	22.9 µM	15.1 µM	13.7 µM	18.3 µM	17.5 µM	16.2 µM	15.4 µM	19.1 µM	14.6	17.7 µM						
CC(C)[Si]1(C(C)C)OCC2OC(n3cnc4c(N)ncnc43)C(N)C2O[Si](C(C)C)(C(C)C)O1 (stereo unspecified)	24.6 µM	14.5 µM	33 µM	24.4 µM	> 43 µM	20.7 µM	20.6 µM	26.3 µM	33.1	> 100 µM						
O=C(O)c1ccc(Nc2cnc3ccc(C(F)(F)F)cc3n2)cc1	30.7 µM	19.6 µM	38.9 µM	58.2 µM	42.6 µM	> 100 µM	98.1 µM	> 100 µM	36.9	40.7 µM						
O=C(Cc1nc2ccc([N+](=O)[O-])cc2[nH]c1=O)C(=O)Nc1cc(Cl)c(Cl)cc1Cl	> 100 µM	> 100 µM	> 100 µM	> 100 µM	> 100 µM	> 100 µM	> 100 µM	> 100 µM	> 100	> 100 µM						
COc1cc2c(cc1OC)C1Cc3ccccc3CN1CCC2 (stereo unspecified)	> 100 µM	> 100 µM	> 100 µM	> 100 µM	> 100 µM	> 100 µM	> 100 µM	> 100 µM	> 100	> 100 µM						
CCC1(O)CN(CCOC)[C@H]2C[C@@H]1C(=O)c1[nH]c3ccccc3c12 (stereo partly specified)	> 100 µM	> 100 µM	> 100 µM	> 100 µM	> 100 µM	> 100 µM	> 100 µM	> 100 µM	> 100	> 100 µM						
CC(=O)Oc1ccc2c(c1)c1c(OC(C)=O)c3ccccc3c(OC(C)=O)c1n2Cc1cccc(C)c1	48.4 µM	84.2 µM	33.5 µM	79.3 µM	> 100 µM	> 100 µM	72.9 µM	> 100 µM	> 100	> 100 µM						
COC1(OC)/C(=C(\N)C=O)NC(C)(C)N1O	> 100 µM	> 100 µM	> 100 µM	> 100 µM	> 100 µM	> 100 µM	97.5 µM	> 100 µM	> 100	> 100 µM						
CCOP(=O)(OCC)C(F)(F)CC1CCCCC1	> 10 µM	> 10 µM	> 10 µM	> 10 µM	> 10 µM	> 10 µM	> 10 µM	> 10 µM	> 10	> 10 µM						
CN1C/C(=C\c2ccccc2[N+](=O)[O-])C(=O)/C(=C/c2ccccc2[N+](=O)[O-])C1	8.87 µM and 4.36 µM	5.52 µM and 3.01 µM	2.75 µM and 2.61 µM	2.3 µM and 3.86 µM	6.45 µM and 3.29 µM	> 28.1 µM and 29.4 µM	1.64 µM and 0.717 µM	4.17 µM and 0.876 µM	0.911	2.27 µM and 0.94 µM	2.26	0.53 µM and 1.13 µM	0.503 µM and 0.179 µM	1.76 µM and 0.298 µM	0.284	0.708 µM and 0.298 µM
CCOC(=O)Cc1nc2c(=O)[nH]cnc2n1C1OC(COC(C)=O)C(OC(C)=O)C1OC(C)=O (stereo unspecified)	> 100 µM	> 100 µM	> 100 µM	> 100 µM	> 100 µM	> 100 µM	> 100 µM	> 100 µM	> 100	> 100 µM						
CN(C)CCNC(=O)c1cccc2c(NC(CS)C(=O)O)c3ccccc3nc12 (stereo unspecified)	27.7 µM	> 100 µM	> 100 µM	18.1 µM	28.2 µM	> 100 µM	> 100 µM	19.5 µM	23.6	> 100 µM						
C/C(=N\O)c1ccc(Nc2c3ccccc3nc3occc23)cc1	3.5 µM	6.35 µM	> 50 µM	0.732 µM	> 50 µM	0.484 µM	> 50 µM	3.5 µM	> 39.3	> 12.2 µM						
C[C@@H](C[C@@H](O)[C@H](O)C(C)(C)O)[C@H]1CC=C2[C@]3(C)[C@H](O)C[C@H]4C(C)(C)[C@H](O)CC[C@]4(C)[C@H]3CC[C@@]21C	34.9 µM	37.9 µM	27.1 µM	35.7 µM	28 µM	28.1 µM	26.2 µM	28.6 µM	27.4	27.5 µM						
O=C(NCCCCl)c1c(O)c2ccccc2[nH]c1=O	> 100 µM	> 100 µM	> 75.7 µM	> 100 µM	> 100 µM	> 100 µM	> 100 µM	> 100 µM	> 100	> 100 µM						
